Structures can show the parent of a compound that is named as a salt.
Legend:
Human CCR3 = biological target: T1, Human CCR3 (Homo sapiens, UniProt P51677); experiment: Receptor binding assay (RBA), [125I]-eotaxin; details: human CCR3-transformed K562 cells, 0.1 nM [125I]-eotaxin; compounds of about 40 to 90% purity; read-out: Activity grade RBA (IC50 class)
T1 construct: The cloned CCR3 cDNA was constructed with pcDNA3 vector and transfected into a IC562 cell line; expressed in transfected cells
T1 sequence (P51677 1-355): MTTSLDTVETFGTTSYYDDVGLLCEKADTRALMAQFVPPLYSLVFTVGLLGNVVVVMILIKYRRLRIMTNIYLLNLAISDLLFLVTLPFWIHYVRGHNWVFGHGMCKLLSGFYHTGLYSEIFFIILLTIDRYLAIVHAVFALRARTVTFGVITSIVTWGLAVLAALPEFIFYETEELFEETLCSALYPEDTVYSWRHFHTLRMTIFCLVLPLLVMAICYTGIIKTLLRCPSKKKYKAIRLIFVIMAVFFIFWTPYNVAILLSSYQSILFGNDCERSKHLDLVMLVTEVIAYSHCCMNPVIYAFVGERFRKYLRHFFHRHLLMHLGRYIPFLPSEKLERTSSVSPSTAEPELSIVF
Protocol: [Determination of IC50 Values of Compounds in Receptor Binding Assay]
• Human CCR3-transformed K562 cells were used. The cloned CCR3 cDNA was constructed with pcDNA3 vector and transfected into a IC562 cell line. The human CCR3-transformed K562 cells were maintained in RPMI-1640 (Cat.#22400-089, Life Technologies) supplemented with 10% FCS (Cat.#A-1115-L, Hyclone), 55 μM 2-mercaptoethanol (Cat.#21985-023, Life Technologies), 1 mM sodium pyruvate (Cat.#11360-070, Life Technologies), 100 units/ml of penicillin G and 100 μg/ml of streptomycin (Cat.#15140-122, Life Technologies), and 0.4 mg/ml of Geneticin (Cat.#10131-035, Life Technologies)(hereinafter called “culture medium”). Before the receptor binding assay, cells were pretreated with 5 mM sodium butyrate (Cat.#193-01522, Wako)-containing the culture medium (2×10^5 cells/ml) for 20-24 hours to increase the expression of CCR3. (2) Receptor Binding Assay (RBA) • Butyrate-pretreated cells, suspended in binding buffer (25 mM HEPES pH 7.6, 1 mM CaCl2, 5 mM MgCl2, 0.5% BSA, 0.1% NaN3) at a cell density of 2×10^6 cells/ml, were added into 60 μl/well in the 96-well round bottom polypropylene plate (Cat.#3365, Costar). Compounds, diluted with the binding buffer (4-times higher concentration of the final concentration), were added into 30 μl/well in the polypropylene plate. [^125I]-labeled human eotaxin (Cat.#IM290, Amersham Pharmacia Biotech), diluted with the binding buffer at the concentration of 0.4 nM (final concentration; 0.1 nM), was added into 30 μl/well in the polypropylene plate. Total 120 μl/well of binding reaction mixture (60 μl/well of cell suspension, 30 μl/well of compound solution, and 30 μl/well of [^125I]-labeled eotaxin) were incubated in the polypropylene plate for 1 hour at room temperature after the incubation, 100 μl/well of the reaction mixture was transferred to a filtration plate (Cat.#MAFB-N0B, Millipore), and washed with the washing buffer (25 mM HEPES pH 7.6, 1 mM CaCl2, 5 mM MgCl2, 0.5% BSA, 0.1% NaN3, 0.5 M NaCl) twice. The 96-well filtration plate was pretreated with 100 μl/well of 0.5% polyethylenimine (Cat.#P-3143, Sigma) for 2-4 hours at room temperature and washed with the washing buffer twice before use. The non-specific binding was determined by parallel incubation in the presence of 500 nM of non-labeled eotaxin (Cat.#23209, Genzyme Techne). The radioactivities remained on the filter were measured by liquid scintillation counter (TopCount™, Packard) after an addition of 45 μl/well of scintillant (Microscint20, Cat.#6013621, Packard). The inhibition percent at each concentration of compound was calculated, and IC50 values were determined from the inhibition curve. [Determination of IC50 Values of Compounds in Calcium Mobilization Assay] (IC50 Ca2+) (1) Cell • Human CCR3-transformed K562 cells were used. The human CCR3-transformed K562 cells were maintained in RPMI-1640 supplemented with 10% FCS, 55 μM 2-mercaptoethanol (Cat.#21985-023, Life Technologies), 1 mM sodium pyruvate, 100 units/ml of penicillin G and 100 μg/ml of streptomycin and 0.4 mg/ml of Geneticin. Before the calcium mobilization assay, cells were pretreated with 5 mM sodium butyrate-containing the culture medium (2×10^5 cells/ml) for 20-24 hours to increase the expression of CCR3. (2) Calcium Mobilization Assay • Butyrate-pretreated cells were loaded with Fluo-3AM (Cat.#F-1242, Molecular Probes) in loading buffer (Hanks' solution Cat.#05906 Nissui, 20 mM HEPES pH 7.6, 0.1% BSA, 1 mM probenecid Cat.#P-8761 Sigma, 1 μM Fluo-3AM, 0.01% pluronic F-127 Cat.#P-6866 Molecular Probes) at a cell density of 1×10^7 cells/ml. Then, cells were washed with calcium assay buffer (Hanks' solution Cat.#05906 Nissui, 20 mM HEPES pH 7.6, 0.1% BSA, 1 mM Probenecid Cat.#P-8761 Sigma). The cell suspension (3.3×10^6 cells/ml) was added into 60 μl/well in the 96-well clear bottom black plate (Cat.#3904, Costar). […]

Compound	IC50 (Human CCR3)	melting point
Cc1cc(C)cc(Oc2ccc([N+](=O)[O-])cc2S(=O)(=O)N2CCN(C(=O)OC(C)(C)C)CC2)c1 [Example 1-1, tert-butyl 4-{[2-(3,5-dimethylphenoxy)-5-nitrophenyl]sulfonyl}-1-piperazinecarboxylate]	> 10000 nM	232 to 233 °C
Cc1cc(C)cc(Oc2ccc([N+](=O)[O-])cc2S(=O)(=O)N2CCNCC2)c1 [Example 1-2, 1-{[2-(3,5-dimethylphenoxy)-5-nitrophenyl]sulfonyl}piperazine hydrochloride]	< 1000 nM	
Cl.O=[N+]([O-])c1ccc(Oc2cc(F)cc(F)c2)c(S(=O)(=O)N2CCNCC2)c1 [Example 1-4]	< 1000 nM	273 to 274 °C
COc1cc(OC)cc(Oc2ccc([N+](=O)[O-])cc2S(=O)(=O)N2CCNCC2)c1.Cl [Example 1-5]	> 10000 nM	211 to 213 °C
Cl.O=[N+]([O-])c1ccc(Oc2cc(C(F)(F)F)cc(C(F)(F)F)c2)c(S(=O)(=O)N2CCNCC2)c1 [Example 1-6]	< 1000 nM	188 to 191 °C
CC(C)(C)c1cc(Oc2ccc([N+](=O)[O-])cc2S(=O)(=O)N2CCNCC2)cc(C(C)(C)C)c1.Cl [Example 1-7]	> 10000 nM	141 to 143 °C
Cc1cc(Oc2ccc([N+](=O)[O-])cc2S(=O)(=O)N2CCNCC2)cc(C(C)C)c1.Cl [Example 1-8]	< 1000 nM	182 to 185 °C
CC(C)c1cccc(Oc2ccc([N+](=O)[O-])cc2S(=O)(=O)N2CCNCC2)c1.Cl [Example 1-9]	< 1000 nM	168 to 170 °C
Cl.N#Cc1cccc(Oc2ccc([N+](=O)[O-])cc2S(=O)(=O)N2CCNCC2)c1 [Example 1-10]	1000 to 10000 nM	265 to 267 °C
Cl.O=[N+]([O-])c1ccc(Oc2cccc3ccccc23)c(S(=O)(=O)N2CCNCC2)c1 [Example 1-11]	1000 to 10000 nM	196 to 198 °C
Cc1ccccc1Oc1ccc([N+](=O)[O-])cc1S(=O)(=O)N1CCNCC1.Cl [Example 1-12]	1000 to 10000 nM	167 to 169 °C
Cl.Cl.Cl.Nc1ccc(Oc2ccc([N+](=O)[O-])cc2S(=O)(=O)N2CCNCC2)cc1 [Example 1-13]	> 10000 nM	246 to 248 °C
O=[N+]([O-])c1ccc(Oc2ccccc2)c(S(=O)(=O)N2CCNCC2)c1 [Example 1-18]	1000 to 10000 nM	
COc1ccc(Oc2ccc([N+](=O)[O-])cc2S(=O)(=O)N2CCNCC2)cc1 [Example 1-19]	> 10000 nM	
O=[N+]([O-])c1ccc(Oc2ccc(F)cc2)c(S(=O)(=O)N2CCNCC2)c1 [Example 1-20]	> 10000 nM	
CC(C)(C)c1ccc(Oc2ccc([N+](=O)[O-])cc2S(=O)(=O)N2CCNCC2)cc1 [Example 1-21]	> 10000 nM	
O=[N+]([O-])c1ccc(Oc2ccc(Cl)cc2)c(S(=O)(=O)N2CCNCC2)c1 [Example 1-22]	> 10000 nM	
O=[N+]([O-])c1ccc(Oc2cccc(F)c2)c(S(=O)(=O)N2CCNCC2)c1 [Example 1-25]	< 1000 nM	
N#Cc1ccccc1Oc1ccc([N+](=O)[O-])cc1S(=O)(=O)N1CCNCC1 [Example 1-29]	1000 to 10000 nM	
Cc1cc(Oc2ccc([N+](=O)[O-])cc2S(=O)(=O)N2CCNCC2)c(C(C)C)cc1Cl [Example 1-81]	> 10000 nM	
Cc1cc(C)cc(Oc2ccc([N+](=O)[O-])cc2S(=O)(=O)N2CCN(CCOCCO)CC2)c1 [Example 1-89]	< 1000 nM	
Cc1cc(C)cc(Oc2ccc([N+](=O)[O-])cc2S(=O)(=O)N2CCCNCC2)c1 [Example 1-90]	< 1000 nM	
Cc1cc(C)cc(Oc2ccc([N+](=O)[O-])cc2S(=O)(=O)N2CC(C)NC(C)C2)c1 (stereo not shown) [Example 1-92]	< 1000 nM	
CC1CN(S(=O)(=O)c2cc([N+](=O)[O-])ccc2Oc2cc(Cl)cc(Cl)c2)CC(C)N1 (stereo not shown) [Example 1-93]	< 1000 nM	

The remaining lines, values ahead:

IC50 (Human CCR3)	melting point	Compound
< 1000 nM		Cc1cc(C)cc(Sc2ccc([N+](=O)[O-])cc2S(=O)(=O)N2CCNCC2)c1 [Example 2-1, 1-({2-[(3,5-dimethylphenyl)-sulfanyl]-5-nitrophenyl}sulfonyl)piperazine hydrochloride]
> 10000 nM		Cc1cc(C)cc(Oc2ccc(N)cc2S(=O)(=O)N2CCN(C(=O)OC(C)(C)C)CC2)c1 [Example 5-1, tert-butyl 4-{[5-amino-2-(3,5-dimethyl-phenoxy)phenyl]sulfonyl}-1-piperazinecarboxylate]
< 1000 nM		Cc1cc(C)cc(Oc2ccc(Cl)cc2S(=O)(=O)N2CCNCC2)c1 [Example 5-2, 1-{[5-chloro-2-(3,5-dimethylphenoxy)phenyl]sulfonyl}piperazine hydrochloride]
> 10000 nM		Cc1cc(C)cc(Oc2ccc(O)cc2S(=O)(=O)N2CCNCC2)c1 [Example 6-1, 4-(3,5-dimethylphenoxy)-3-(1-piperazinylsulfonyl)phenol hydrochloride]
< 1000 nM		COc1ccc(Oc2cc(C)cc(C)c2)c(S(=O)(=O)N2CCNCC2)c1 [Example 6-2, hydrochloride]
< 1000 nM		Cc1cc(C)cc(Oc2ccc(Br)cc2S(=O)(=O)N2CCNCC2)c1 [Example 8-1, 1-{[5-bromo-2-(3,5-dimethylphenoxy)phenyl]sulfonyl}piperazine hydrochloride]
< 1000 nM		Cc1cc(C)cc(Oc2ccc(C#N)cc2S(=O)(=O)N2CCNCC2)c1 [Example 9-1, 4-(3,5-dimethylphenoxy)-3-(1-piperazinylsulfonyl)benzonitrile hydrochloride]
1000 to 10000 nM		CN(C)C(=O)c1ccc(Oc2cc(Cl)cc(Cl)c2)c(S(=O)(=O)N2CCNCC2)c1 [Example 10-1, 4-(3,5-dichlorophenoxy)-N,N-dimethyl-3-(1-piperazinylsulfonyl)benzamide hydrochloride]
> 10000 nM		Cc1cc(C)cc(Oc2cc3cc[nH]c3cc2S(=O)(=O)N2CCNCC2)c1 [Example 11-1, 5-(3,5-dimethylphenoxy)-6-(1-piperazinylsulfonyl)-1H-indole trifluoroacetate]
< 1000 nM		N#Cc1ccc(Nc2cc(Cl)cc(Cl)c2)c(S(=O)(=O)N2CCNCC2)c1 [Example 20-1, 4-[(3,5-dichlorophenyl)amino]-3-(1-piperazinylsulfonyl)benzonitrile hydrochloride]
1000 to 10000 nM		Cc1cc(C)cc(Oc2ccncc2S(=O)(=O)N2CCNCC2)c1 [Example 25-1, 1-{[4-(3,5-dimethylphenoxy)-3-pyridinyl]sulfonyl}piperazine hydrochloride]
